The values below are quoted from earlier work in patent US7960544B2, “Useful indole compounds” (Ironwood Pharmaceuticals, Inc., priority 2005, dated 2011).

In series [1] the test system is MCF-7 cells. The settings on record: up to 100 μM.
The subject of series [2] is prostaglandin synthesis.
For series [3], the system named is CCR3. The settings on record: cross-desensitization.
For series [4], the target named is DAO (Homo sapiens, UniProt P14920).
Sequence of DAO (P14920 whole entry): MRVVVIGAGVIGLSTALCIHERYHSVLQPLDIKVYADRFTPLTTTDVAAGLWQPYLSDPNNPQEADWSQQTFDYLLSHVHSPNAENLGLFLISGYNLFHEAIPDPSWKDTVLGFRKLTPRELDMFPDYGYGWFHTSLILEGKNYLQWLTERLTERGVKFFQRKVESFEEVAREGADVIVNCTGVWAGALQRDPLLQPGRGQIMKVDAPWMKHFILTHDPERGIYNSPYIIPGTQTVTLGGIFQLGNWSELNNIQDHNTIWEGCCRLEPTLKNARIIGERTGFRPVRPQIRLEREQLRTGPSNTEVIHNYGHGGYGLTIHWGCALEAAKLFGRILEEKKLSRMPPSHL

In the case of `CCCCC/C=C\C/C=C\C/C=C\C/C=C\CCCC(=O)NCCO` [anandamide], in series [1], the “cell viability (as assessed by trypan blue)” value is “No significant decrease in cell viability”.
With `Cc1c(CC(=O)O)c2cc(O)ccc2n1C(=O)c1ccc(Cl)cc1` [desmethyl metabolite, (1-(4-chlorobenzoyl)-5-hydroxy-2-methyl-1H-indol-3-yl]acetic acid], the “ability to inhibit prostaglandin synthesis” value in series [2] is “has some ability to inhibit prostaglandin synthesis”.
As to `COc1ccc2c(c1)c(CC(=O)O)c(C)n2C(=O)c1ccc(Cl)cc1` [indomethacin], the “expression of CCR3, the receptor for eotaxin” value in series [3] is given as “reduces expression of CCR3”. Further, the “inhibition of DAO” value in series [4] is on record as “inhibitor of DAO”.
